Measurements from PMC7064328 (Environmental Health Perspectives, 2020).

Key:
[1] = tested on: placenta; assay: Placental thyroid hormone quantification (HPLC-MS/MS); assay type: in vivo, mouse (CD-1); settings: E17.5
Experimental: Thyroid hormones (T3, triiodothyronine; T4, thyroxine; rT3, reverse triiodothyronine) in placenta were analyzed according to the methods described in Leonetti et al. ([2016]). Briefly, ∼300mg ( 207–526mg ) of two to three pooled placental tissues of same-sex embryos was homogenized and digested for 16 h overnight in PRONASE® Protease (Streptomyces griseus) solution (EMD Millipore Corp.). Each pooled sample of two to three placentas was considered as one biological replicate and included placentas from the same litter when possible. Three biological replicates were used for each treatment group and each sex. Samples were spiked with an antioxidant solution (containing 37.5mg/mL each of citric acid, ascorbic acid, and dithiothreitol) and C13 isotopically labeled internal standards (T4, T3, and rT3), and cold acetone was added to stop the digestion reaction. Samples were vortex mixed and centrifuged three times for 2 min at 10,000 relative centrifugal force (rcf), and the supernatants were collected and combined. Sample pH was adjusted with 6M hydrochloric acid to pH<2 . A liquid–liquid extraction with cyclopentane was performed and the cyclopentane layer discarded; briefly, 1mL of cyclopentane was added to the supernatant and vortexed before the sample was centrifuged for 3 min at 3,000 rcf and the cyclopentane layer discarded, and this was repeated three times. A liquid–liquid extraction with ethyl acetate was performed; briefly, 3mL of ethyl acetate was added to the extract and vortexed before being shaken on a plate shaker for 30 min and centrifuged for 3 min at 3,000 rcf, and the ethyl acetate layer collected; this was repeated three times. Ethyl acetate extracts were dried down to 50μL under a gentle nitrogen stream and resuspended in 1mL of 0.01M hydrochloric acid in 10% methanol. Samples were purified by solid-phase extraction using SampliQ Optimized Polymer Technology (OPT) cartridges ( 3mL , 50mg; Agilent Technologies). Final extracts in 400μL of 1:1 methanol:water were filtered using Whatman® Mini-UniPrep® Syringeless Filters [Polytetrafluoroethylene (PTFE), 0.2μm; GE Healthcare]. Extracts were analyzed on an Agilent high-performance liquid chromatography (HPLC) 1260 with a Synergi™ 50mm×2mm Polar-RP column ( 2.5μm; Phenomenex) coupled to an Agilent model 6460 tandem mass spectrometer with electrospray ionization (HPLC-MS/MS-ESI). Mobile phases consisted of 10 mM formic acid in methanol and 10 mM formic acid in water. Laboratory processing blanks were extracted alongside the placental tissues to monitor background levels. No TH were detected in the lab blanks. Method detection limits (MDLs) were calculated using a signal-to-noise value of 3 for each analyte (T3, T4, and rT3). Values were normalized to the wet weight of placenta extracted for a final value of nanogram hormone/gram placenta. Values below the MDL (T4, 0.84 ng/g; T3, 0.42 ng/g; rT3, 0.67 ng/g ) were imputed using the calculation MDL×0.5 , and values lacking a quantifiable peak on mass spectrometry were excluded from the analysis.
TH concentrations in the placenta were quantified, and the ratios of T3:T4 and rT3:T4 in E17.5 placentas were assessed to evaluate potential disruption of peripheral TH control (e.g., impacts on thyroid deiodinase activity). Each end point was analyzed for sex×treatment interaction or for an overall effect of sex. Placenta TH were analyzed by analysis of variance using lme4 ([Bates et al. 2014]). Simultaneous tests for general linear hypotheses were corrected for multiple comparisons of means using Tukey contrasts in the package multcomp ([Hothorn et al. 2009]). Placental TH and their ratios were initially analyzed with embryo sex as an interaction term in the model, with the dose group as the predictor variable. Inclusion of a sex interaction or sex covariate in the final model was examined in a stepwise fashion. Internal dosimetry data were analyzed by analysis of variance. […]

[2] = tested on: maternal liver; assay: Transmission electron microscopy of dam liver; assay type: in vivo, mouse (CD-1); settings: E17.5
Text: Block 2 dam liver portions stored in McDowell and Trump’s fixative ([McDowell and Trump 1976]) were processed using a Leica EM TP processor. Briefly, samples were rinsed with buffer, postfixed in 1% osmium tetroxide in 0.1-M phosphate buffer, rinsed in distilled water, dehydrated, and embedded in Ply/Bed® 812 (Polysciences, Inc.) epoxide resin. Blocks were trimmed, and semithin sections ( ∼0.5μm ) were stained with 1% toluidine blue (Poly-scientific R&D Corp.) O in 1% sodium borate to ascertain areas of interest. Ultrathin sections ( […] ) were cut from areas of interest and placed on 200-mesh copper grids and stained with uranyl acetate and lead citrate, and digital images were captured using an Orius® SC1000 side mount camera (Gatan) attached to a Techani T12 transmission electron microscope (TEM) (FEI Company). In general, peroxisomes were smaller than mitochondria and round with a dark, electron-dense, granular matrix and surrounded by a single membrane. […] Samples were analyzed by R.D.K., Ph.D.

SMILES: N.O=C(O)C(F)(OC(F)(F)C(F)(F)C(F)(F)F)C(F)(F)F (stereo not drawn) [GenX, ammonium 2,3,3,3-tetrafluoro-2-(heptafluoropropoxy)propanoate]
- Placental T3 ([1]; 2 mg/kg/d): 0.3±0.2 [5 (0, 5)] ng/g
- Placental T4 ([1]; 2 mg/kg/d): 5.3±1.7 [6 (6, 0)] ng/g
- Placental rT3 ([1]; 2 mg/kg/d): 1.7±0.8 [6 (6, 0)] ng/g
- Placental T3 ([1]; 10 mg/kg/d): 0.2±0 [6 (0, 6)] ng/g
- Placental T4 ([1]; 10 mg/kg/d): 6.1±1.1 [6 (6, 0)] ng/g
- Placental rT3 ([1]; 10 mg/kg/d): 1.6±0.3 [6 (6, 0)] ng/g
- Placental T3 ([1]; female, 2 mg/kg/d): 0.3 ± 0.2 ng/g
- Placental T4 ([1]; female, 2 mg/kg/d): 5.9 ± 2.3 ng/g
- Placental rT3 ([1]; female, 2 mg/kg/d): 2.3 ± 0.6 ng/g
- Placental T3 ([1]; female, 10 mg/kg/d): 0.2 ± 0 ng/g
- Placental T4 ([1]; female, 10 mg/kg/d): 6.5 ± 1.4 ng/g
- Placental rT3 ([1]; female, 10 mg/kg/d): 1.9 ± 0.1 ng/g
- Placental T3 ([1]; male, 2 mg/kg/d): 0.2 ± 0 ng/g
- Placental T4 ([1]; male, 2 mg/kg/d): 4.7 ± 1.1 ng/g
- Placental rT3 ([1]; male, 2 mg/kg/d): 1.0 ± 0.2 ng/g
- Placental T3 ([1]; male, 10 mg/kg/d): 0.2 ± 0 ng/g
- Placental T4 ([1]; male, 10 mg/kg/d): 5.8 ± 0.7 ng/g
- Placental rT3 ([1]; male, 10 mg/kg/d): 1.3 ± 0.3 ng/g
- Liver ultrastructure (TEM) ([2]; 2 mg/kg/d): abnormal ultrastructure
- Liver ultrastructure (TEM) ([2]; 10 mg/kg/d): abnormal ultrastructure

SMILES: O=C(O)C(F)(F)C(F)(F)C(F)(F)C(F)(F)C(F)(F)C(F)(F)C(F)(F)F [PFOA, Perfluorooctanoic acid]
- Placental T3 ([1]; 1 mg/kg/d): 0.2±0 [6 (0, 6)] ng/g
- Placental T3:T4 ratio ([1]; 1 mg/kg/d): 0.09±0.03 [6]
- Placental T4 ([1]; 1 mg/kg/d): 2.5±1.0 [6 (6, 0)] ng/g
- Placental rT3 ([1]; 1 mg/kg/d): 0.7±0.4 [6 (3, 3)] ng/g
- Placental rT3:T4 ratio ([1]; 1 mg/kg/d): 0.30±0.21 [6]
- Placental T3 ([1]; 5 mg/kg/d): 0.2±0 [4 (0, 4)] ng/g
- Placental T3:T4 ratio ([1]; 5 mg/kg/d): 0.07±0.02 [4]
- Placental T4 ([1]; 5 mg/kg/d): 2.8±1.3 [6 (6, 0)] ng/g
- Placental rT3 ([1]; 5 mg/kg/d): 1.4±0.7 [5 (5, 0)] ng/g
- Placental rT3:T4 ratio ([1]; 5 mg/kg/d): 0.45±0.05 [5]
- Placental T3 ([1]; female, 1 mg/kg/d): 0.2 ± 0 ng/g
- Placental T3:T4 ratio ([1]; female, 1 mg/kg/d): 0.104 ± 0.02
- Placental T4 ([1]; female, 1 mg/kg/d): 2.0 ± 0.4 ng/g
- Placental rT3:T4 ratio ([1]; female, 1 mg/kg/d): 0.401 ± 0.22
- Placental T3 ([1]; female, 5 mg/kg/d): 0.2 ± 0 ng/g
- Placental T3:T4 ratio ([1]; female, 5 mg/kg/d): 0.065 ± 0.02
- Placental rT3 ([1]; female, 5 mg/kg/d): 1.6 ± 1.0 ng/g
- Placental rT3:T4 ratio ([1]; female, 5 mg/kg/d): 0.441 ± 0.05
- Placental T3 ([1]; male, 1 mg/kg/d): 0.2 ± 0 ng/g
- Placental T3:T4 ratio ([1]; male, 1 mg/kg/d): 0.071 ± 0.02
- Placental rT3 ([1]; male, 1 mg/kg/d): 0.5 ± 0.4 ng/g
- Placental rT3:T4 ratio ([1]; male, 1 mg/kg/d): 0.196 ± 0.17
- Placental T3 ([1]; male, 5 mg/kg/d): 0.2 ng/g
- Placental T3:T4 ratio ([1]; male, 5 mg/kg/d): 0.083
- Placental rT3 ([1]; male, 5 mg/kg/d): 1.2 ± 0.1 ng/g
- Placental rT3:T4 ratio ([1]; male, 5 mg/kg/d): 0.454 ± 0.07
- Liver ultrastructure (TEM) ([2]; 1 mg/kg/d): enlarged hepatocytes with increased cytoplasmic organelles consistent with mitochondria and peroxisomes, evenly dispersed glycogen, and small vacuoles in the centrilobular regions
- Liver ultrastructure (TEM) ([2]; 5 mg/kg/d): abnormal ultrastructure
